Source: PMC6112376, “Comprehensive Analyses and Prioritization of Tox21 10K Chemicals Affecting Mitochondrial Function by in-Depth Mechanistic Studies” (Environmental Health Perspectives, 2018)
Like-named read-outs stand apart in the source and are kept apart here.

What was measured:
hNSC = experiment: MMP assay in human neural stem cells (hNSC); assay type: cell-based; conditions: Homo sapiens, Neural stem cell; 1 h treatment; fresh re-sourced stocks; mean±SD of three experiments; read-out: hNSC IC50 (MMP)
HepG2 cells [1] = experiment: ROS-Glo hydrogen peroxide (ROS) assay; assay type: cell-based, human; conditions: 2 h treatment, mean±SD of three experiments
HepG2 cells [2] = experiment: Intracellular ATP content (cell viability) assay; assay type: cell-based, human; conditions: Homo sapiens, HepG2, 40 h treatment, mean±SD of three experiments
[3] = test system: p53 (p53-bla HCT-116 cells); experiment: p53 β-lactamase reporter gene assay; assay type: cell-based, human; conditions: 16 h incubation; mean±SD of three experiments
[4] = test system: Nrf2/ARE (ARE-bla HepG2 cells); experiment: ARE β-lactamase reporter gene assay; assay type: cell-based, human; conditions: 16 h incubation, mean±SD of three experiments
[5] = test system: isolated rat liver mitochondria; experiment: Oxygen consumption, Clark-type oxygen electrode; assay type: biochemical; conditions: for I-ADP, % of control (O2 consumption rate): glutamate/malate driven state 3 respiration; for I-ADP, % of control (O2 consumption rate) / I-sub, % of control (O2 consumption rate) / II-ADP, % of control (O2 consumption rate) / II-sub, % of control (O2 consumption rate): isolated rat liver mitochondria; for I-sub, % of control (O2 consumption rate): glutamate/malate driven state 4 respiration; for II-ADP, % of control (O2 consumption rate): succinate-driven state 3 respiration; for II-sub, % of control (O2 consumption rate): succinate-driven state 4 respiration
[6] = test system: mitochondrial respiratory chain complex I; assay type: biochemical, rat; conditions: at 100μM
[7] = target: T1, mitochondrial respiratory chain complex II (Rattus norvegicus, UniProt P21913+Q641Z9+Q6PCT8+Q920L2); experiment: Respiratory chain complex II activity; assay type: biochemical; conditions: tested up to 100μM
T1 construct: Submitochondrial particles were prepared by subjecting the intact rat mitochondria, isolated as described above, to three successive freeze–thaw cycles; from tissue; host or cells: rat liver mitochondria (submitochondrial particles)
T1 sequence (Q920L2 35-656): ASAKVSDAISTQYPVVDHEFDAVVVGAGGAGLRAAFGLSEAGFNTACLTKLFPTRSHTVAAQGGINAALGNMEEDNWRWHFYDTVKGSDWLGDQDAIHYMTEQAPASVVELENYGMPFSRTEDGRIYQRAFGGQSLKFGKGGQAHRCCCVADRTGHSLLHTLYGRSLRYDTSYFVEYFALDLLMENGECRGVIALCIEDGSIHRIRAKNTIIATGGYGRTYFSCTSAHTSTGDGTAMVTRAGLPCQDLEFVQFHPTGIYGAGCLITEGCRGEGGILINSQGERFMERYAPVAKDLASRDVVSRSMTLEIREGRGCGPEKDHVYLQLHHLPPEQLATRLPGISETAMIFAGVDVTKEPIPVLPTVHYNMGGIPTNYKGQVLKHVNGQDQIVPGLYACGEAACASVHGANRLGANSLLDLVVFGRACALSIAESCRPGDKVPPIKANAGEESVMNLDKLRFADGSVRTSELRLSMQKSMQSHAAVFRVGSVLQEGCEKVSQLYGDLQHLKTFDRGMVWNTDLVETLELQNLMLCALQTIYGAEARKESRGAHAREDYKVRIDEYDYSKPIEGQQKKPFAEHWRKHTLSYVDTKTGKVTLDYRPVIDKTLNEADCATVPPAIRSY
T1 sequence (P21913 31-282): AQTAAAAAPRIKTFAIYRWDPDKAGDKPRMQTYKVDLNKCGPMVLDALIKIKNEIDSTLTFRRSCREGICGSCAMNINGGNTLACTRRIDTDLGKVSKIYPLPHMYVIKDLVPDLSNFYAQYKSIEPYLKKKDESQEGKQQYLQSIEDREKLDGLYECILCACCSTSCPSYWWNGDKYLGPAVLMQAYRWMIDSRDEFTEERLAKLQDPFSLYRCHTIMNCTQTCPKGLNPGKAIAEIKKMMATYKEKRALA
T1 sequence (Q641Z9 1-169): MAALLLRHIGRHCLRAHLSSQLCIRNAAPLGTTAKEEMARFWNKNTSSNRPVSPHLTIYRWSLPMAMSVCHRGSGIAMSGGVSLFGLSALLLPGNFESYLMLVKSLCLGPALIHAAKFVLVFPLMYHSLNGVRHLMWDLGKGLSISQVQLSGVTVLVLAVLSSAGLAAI
T1 sequence (Q6PCT8 57-159): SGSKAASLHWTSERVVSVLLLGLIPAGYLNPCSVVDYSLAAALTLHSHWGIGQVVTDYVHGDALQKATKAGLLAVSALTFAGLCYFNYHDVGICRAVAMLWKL

[8] = test system: mitochondrial respiratory chain complex III; assay type: biochemical, rat
[9] = test system: mitochondrial respiratory chain complex IV; assay type: biochemical, rat
[10] = test system: mitochondrial respiratory chain complex V; assay type: biochemical, rat
[11] = test system: HeLa cells expressing YFP-Parkin; experiment: Parkin translocation assay; assay type: cell-based, human; conditions: HeLa cells stably expressing YFP-Parkin; treated for 2 h
HepG2 cells [12] = conditions: cited from earlier work
HepG2 cells [13] = experiment: cells; conditions: Homo sapiens; for Emax: HepG2, read-out: MMP assays efficacy (%) HepG2
[14] = test system: Caenorhabditis elegans strain PE255; experiment: In vivo C. elegans ATP status assay
rat primary hepatocytes = experiment: MMP assay in rat primary hepatocytes; conditions: for Rat hepatocytes (efficacy) (MMP): % of positive control, mean±SD of three experiments; for IC50: Rattus norvegicus, Hepatocyte; for MMP assays efficacy (%) Rat Hepatocytes: mean ± SD of three experiments
[15] = test system: Caenorhabditis elegans (Bristol N2); experiment: C. elegans larval development and growth assay
[16] = 5 mM glucose, read-out: ATP (HepG2, glucose) IC50
[17] = 10 mM galactose, read-out: ATP (HepG2, galactose) IC50
[18] = HepG2, 1 h, read-out: HepG2 IC50 Galactose (MMP)
[19] = HepG2, 1 h, read-out: HepG2 IC50 Glucose (MMP)
[20] = HepG2, read-out: MMP assays IC50 (µM) HepG2
[21] = 1 h, read-out: Rat hepatocytes IC50 (MMP)
[22] = read-out: MMP assays IC50 (µM) Rat Hepatocytes

COc1cc2c(cc1OC)-c1cc3ccc(OC)c(OC)c3c[n+]1CC2 [Palmatine chloride hydrate]
IC50 (hNSC): 34.1 ± 11.2 µM | ROS (HepG2) EC50 (HepG2 cells [1]): Inactive | IC50 (HepG2 cells [2]; [16]): 19 ± 9.49 µM | IC50 (HepG2 cells [2]; [17]): 27.1 ± 8.93 µM | p53 (HCT-116) EC50 [3]: Inactive | ARE (HepG2) EC50 [4]: Inactive | I-ADP, % of control (O2 consumption rate) ([5]; 0.8 µM): 91 (32.3) % of control | I-sub, % of control (O2 consumption rate) ([5]; 0.8 µM): 114 (10.9) % of control | II-ADP, % of control (O2 consumption rate) ([5]; 0.8 µM): 96 (51.6) % of control | II-sub, % of control (O2 consumption rate) ([5]; 0.8 µM): 119 (19.5) % of control | I-ADP, % of control (O2 consumption rate) ([5]; 4 µM): 76 (27.3) % of control | I-sub, % of control (O2 consumption rate) ([5]; 4 µM): 105 (10.1) % of control | II-ADP, % of control (O2 consumption rate) ([5]; 4 µM): 89 (47.6) % of control | II-sub, % of control (O2 consumption rate) ([5]; 4 µM): 103 (16.9) % of control | I-ADP, % of control (O2 consumption rate) ([5]; 20 µM): 70 (25.0) % of control | I-sub, % of control (O2 consumption rate) ([5]; 20 µM): 114 (10.9) % of control | II-ADP, % of control (O2 consumption rate) ([5]; 20 µM): 85 (45.5) % of control | II-sub, % of control (O2 consumption rate) ([5]; 20 µM): 116 (19.1) % of control | I-ADP, % of control (O2 consumption rate) ([5]; 100 µM): 77 (35.3) % of control | I-sub, % of control (O2 consumption rate) ([5]; 100 µM): 172 (26.6) % of control | II-ADP, % of control (O2 consumption rate) ([5]; 100 µM): 56 (40.4) % of control | II-sub, % of control (O2 consumption rate) ([5]; 100 µM): 114 (35.8) % of control | Potential Mechanism ([5]; mitochondrial respiration in isolated rat liver mitochondria, Clark type oxygen electrode, over tested concentrations): Uncoupler + Inhibitor | Complex I % inhibition [6]: 12.3±3.05 at 100μM % | Complex II % inhibition (activity call) [7]: Inactive | Complex III % inhibition (activity call) [8]: Inactive | Complex IV % inhibition (activity call) [9]: Inactive | Complex V % inhibition (activity call) [10]: Inactive | Parkin recruitment [11]: Inactive | MMP assays efficacy (%) qHTS-HepG2 (HepG2 cells [12]): -99±8% | IC50 (HepG2 cells [12]; read-out: MMP assays IC50 (µM), qHTS-HepG2): 22.7 ± 5.23 µM | IC50 (HepG2 cells [13]; [18]): 70.6 ± 4.79 µM | IC50 (HepG2 cells [13]; [19]): 55.7 ± 17.9 µM | IC50 (HepG2 cells [13]; [20]): 12.6 µM | Emax (HepG2 cells [13]): 86% | LUM: mean difference in luminescence (ATP content) relative to plate controls ([14]; 0.5 µM): 1.192 | LUM: mean difference in luminescence (ATP content) relative to plate controls ([14]; 1 µM): -0.05262 | LUM: mean difference in luminescence (ATP content) relative to plate controls ([14]; 5 µM): 0.04332 | LUM: mean difference in luminescence (ATP content) relative to plate controls ([14]; 10 µM): -0.02063 | LUM: mean difference in luminescence (ATP content) relative to plate controls ([14]; 25 µM): -0.0762 | LUM: mean difference in luminescence (ATP content) relative to plate controls ([14]; 50 µM): 0.2026 | LUM: mean difference in luminescence (ATP content) relative to plate controls ([14]; 75 µM): 0.01325 | LUM: mean difference in luminescence (ATP content) relative to plate controls ([14]; 100 µM): 0.2556 | Rat hepatocytes (efficacy) (MMP) (rat primary hepatocytes): −101±2.09% | IC50 (rat primary hepatocytes; [21]): 6.74 ± 2.89 µM | IC50 (rat primary hepatocytes; [22]): 1.37 ± 0.7 µM | MMP assays efficacy (%) Rat Hepatocytes (rat primary hepatocytes): -72±21% | EXT: mean difference in nematode size relative to plate controls ([15]; 0.5 µM): -0.01207 | EXT: mean difference in nematode size relative to plate controls ([15]; 1 µM): -0.07266 | EXT: mean difference in nematode size relative to plate controls ([15]; 5 µM): -0.05419 | EXT: mean difference in nematode size relative to plate controls ([15]; 10 µM): -0.03134 | EXT: mean difference in nematode size relative to plate controls ([15]; 25 µM): 0.08842 | EXT: mean difference in nematode size relative to plate controls ([15]; 50 µM): 0.1943

NNc1nc(-c2ccc([N+](=O)[O-])cc2)cs1 [2-Hydrazino-4-(4-nitrophenyl)thiazole]
IC50 (hNSC): 4.3 ± 1.42 µM | EC50 (HepG2 cells [1]; Homo sapiens, HepG2, read-out: ROS (HepG2) EC50): 15.4 ± 16.6 µM | IC50 (HepG2 cells [2]; [16]): 48.1 ± 24.3 µM | IC50 (HepG2 cells [2]; [17]): 35.5 ± 4.54 µM | p53 (HCT-116) EC50 [3]: Inactive | EC50 ([4]; Homo sapiens, HepG2, read-out: ARE (HepG2) EC50): 9.83 ± 3.79 µM | Complex I % inhibition [6]: 21.6±7.1 at 100μM % | Complex II % inhibition (activity call) [7]: Inactive | Complex III % inhibition (activity call) [8]: Inactive | Complex IV % inhibition (activity call) [9]: Inactive | Complex V % inhibition (activity call) [10]: Inactive | Parkin recruitment [11]: Active | MMP assays efficacy (%) qHTS-HepG2 (HepG2 cells [12]): -106±1% | IC50 (HepG2 cells [12]; read-out: MMP assays IC50 (µM) qHTS-HepG2): 1.6 ± 0.29 µM | IC50 (HepG2 cells [13]; [18]): 14.2 ± 2.56 µM | IC50 (HepG2 cells [13]; [19]): 12.1 ± 1.39 µM | IC50 (HepG2 cells [13]; [20]): 1.26 µM | Emax (HepG2 cells [13]): 97% | LUM: mean difference in luminescence (ATP content) relative to plate controls ([14]; 0.5 µM): -0.01284 | LUM: mean difference in luminescence (ATP content) relative to plate controls ([14]; 1 µM): -0.00711 | LUM: mean difference in luminescence (ATP content) relative to plate controls ([14]; 5 µM): 0.1253 | LUM: mean difference in luminescence (ATP content) relative to plate controls ([14]; 10 µM): -0.00409 | LUM: mean difference in luminescence (ATP content) relative to plate controls ([14]; 25 µM): 0.7526 | LUM: mean difference in luminescence (ATP content) relative to plate controls ([14]; 50 µM): 0.8462 | LUM: mean difference in luminescence (ATP content) relative to plate controls ([14]; 75 µM): 1.473 | LUM: mean difference in luminescence (ATP content) relative to plate controls ([14]; 100 µM): 1.784 | minimal effective concentration ([14]; Caenorhabditis elegans, read-out: LEC LUM: lowest effect concentration for luminescence, a measure of nematode ATP content): 50 µM | Rat hepatocytes (efficacy) (MMP) (rat primary hepatocytes): −73.9±11.0% | IC50 (rat primary hepatocytes; [21]): 20.9 ± 11.3 µM | IC50 (rat primary hepatocytes; [22]): 7.9 ± 5.75 µM | MMP assays efficacy (%) Rat Hepatocytes (rat primary hepatocytes): -89±18% | EXT: mean difference in nematode size relative to plate controls ([15]; 0.5 µM): 0.08621 | EXT: mean difference in nematode size relative to plate controls ([15]; 1 µM): 0.08886 | EXT: mean difference in nematode size relative to plate controls ([15]; 5 µM): 0.126 | EXT: mean difference in nematode size relative to plate controls ([15]; 10 µM): 0.2572 | EXT: mean difference in nematode size relative to plate controls ([15]; 25 µM): 0.3181 | EXT: mean difference in nematode size relative to plate controls ([15]; 50 µM): 1.067 | EXT: mean difference in nematode size relative to plate controls ([15]; 75 µM): 1.594 | EXT: mean difference in nematode size relative to plate controls ([15]; 100 µM): 1.403 | minimal effective concentration ([15]; Caenorhabditis elegans, read-out: LEC EXT: lowest effect concentration for extinction, a measure of nematode size): 25 µM
